Data published in paper PMC10222548, “Semisynthesis, Biological Evaluation and Molecular Docking Studies of Barbatic Acid Derivatives as Novel Diuretic Candidates” (Molecules, 2023).

Legend:
[1] = tested on: Cl^− transport, MDCK cells; test: In vitro diuretic activity: Cl^− transport inhibition, Transwell chamber seeded with MDCK cells; format: cell-based, canine; conditions: Canis lupus familiaris; 100 μmol/L, MDCK cells in Transwell; mean ± SD of three replicates; negative = promotion; read-out: Transport Inhibition Rate (%) Cl^−
Description: (§1) The traditional methods for screening diuretic drugs are mostly in vivo experiments with mice, which have a long experimental cycle and are not suitable for screening massive compounds. As we know, the generation and excretion of urine involve two processes: glomerular filtration and tubular reabsorption. Reabsorption refers to the process in which the renal tubular epithelial cells transport water and certain solutes from the tubular fluid (urine) partially or entirely back into the bloodstream. Then, 99% of the water in the original urine filtered by the glomerulus is reabsorbed, and the transport of Na^+ and Cl^− plays an important role in this process. Thiazide and furosemide diuretics exert their diuretic effects by inhibiting the transport of Na^+ and Cl^−, which affects the tubular reabsorption of the original urine. Based on this principle, we established a new type of cell screening model for diuretic active drugs. Madin–Darby canine kidney (MDCK) cells were inoculated into a Transwell chamber to simulate the renal tubules. This cell model could transport and absorb external NaCl, simulating the reabsorption phenomenon. […] The effectiveness of this model was confirmed by the validation of hydrochlorothiazide, which is a commercially available diuretic drug and could inhibit the transport of Na^+ and Cl^− in renal tubules.
(§2) Generally, the transport of Na^+ and Cl^− plays an important role in glomerular filtration and tubular reabsorption. […] For example, inhibition rates of transport of 6a and 6c were over 30%, and had better inhibitory ability than barbatic acid. […] When ethyl, propyl, and benzyl were substituted on R^1, the introduction of any group could not enhance the inhibitory activity of barbatic acid, such as 6h–u and 6j′–6p′.
(§3) Log-phase MDCK cells were seeded in the upper chambers of Transwell plates (4 × 10^4 cells/well), and 800 µL of complete culture medium was added to the lower chambers. After 24 h of incubation at 37 °C, the electrical resistance of the upper chamber cells was measured one by one (R = (Rcell − Rblank) × 0.04π). When the electrical resistance of the upper chamber cells reached ≥300 Ω cm^2, the upper chamber medium was removed and replaced with the drug solution. The blank group (given normal saline), the experimental group (1, 6a–6p′, 100 μmol/L), and the hydrochlorothiazide group (100 μmol/L) were set, and each well was treated with 100 µL of the corresponding solution. The cells were then further incubated for 24 h. After that, the upper and lower chamber fluids were removed, and 200 µL of NaCl solution (15 mg/mL) was added to the upper chamber, while 800 µL of DMEM was added to the lower chamber for continued incubation. At 0.5, 1, 2, and 3 h, 50 µL of the lower chamber fluid was taken and the OD values were measured using Na^+ and Cl^− detection kits. The transport inhibition rate (%) was calculated as follows: transport inhibition rate (%) = (ODblank − ODexperimental)/ODblank × 100%.

[2] = tested on: Na^+ transport, MDCK cells; test: In vitro diuretic activity: Na^+ transport inhibition, Transwell chamber seeded with MDCK cells; format: cell-based, canine; conditions: 100 μmol/L, MDCK cells in Transwell, mean ± SD of three replicates, negative = promotion; for inhibition at 100 µM: Canis lupus familiaris, MDCK, read-out: Transport Inhibition Rate (%) Na^+
Description: as §1, §2, §3

[3] = tested on: Ca^2+ transport, MDCK cells; test: In vitro litholytic activity: Ca^2+ transport inhibition, Transwell chamber with MDCK cells; format: cell-based, canine; conditions: Canis lupus familiaris, 100 μmol/L, mean ± SD of three replicates, read-out: Transport Inhibition Rate (%) Ca^2+
Procedure: (§4) On the other hand, all compounds had little inhibitory effect on Ca^2+ transport. The structure–activity relationships (SARs) were also observed. […] On the other hand, the introduction of the benzyl group to the R^1 or R^2 of barbatic acid could not lead to more promising compounds, such as 6a, 6n, 6u, 6b′, and 6i′–p′.
(§5) Logarithmic-phase DMCK cells were inoculated in the upper chamber of a Transwell plate (4 × 10^4 cells/well). Then, 800 µL of complete culture medium was added to the lower chamber, and the cells were incubated for 24 h until they adhered to the wall. The resistance value of the upper chamber cells was measured one by one at 37 °C (R = (Rcell − Rblank) × 0.04π). When the resistance value of the upper chamber cells was ≥300 Ω cm^2, the upper chamber liquid was discarded for drug administration. A control group (given physiological saline) and an experimental group (1, 6a–6p′, 100 μmol/L) were set up, and 100 µL of each drug was administered per well, followed by continued incubation for 24 h. Then, the upper and lower chamber liquids were discarded, and 200 µL of CaC2O4 (30 mmol/L) solution was added to the upper chamber, and 800 µL of PBS solution was added to the lower chamber for continued incubation. At 0.5, 1, 2, and 3 h, 50 µL of the lower chamber liquid was taken and then tested using the Ca^2+ and C2O4^2− detection kits and the following detection methods. The transport inhibition rate (%) = (ODblank − ODexperimental)/ODblank × 100%.

[4] = tested on: C2O4^2− transport, MDCK cells; test: In vitro litholytic activity: C2O4^2− transport inhibition, Transwell chamber with MDCK cells; format: cell-based, canine; conditions: for inhibition at 100 µM: Canis lupus familiaris, 100 μmol/L, MDCK cells in Transwell, mean ± SD of three replicates, read-out: Transport Inhibition Rate (%) C2O4^2−
Procedure: as §4, §5

MDCK cells = test: MTT cytotoxicity assay on MDCK cells; format: cell-based, canine; conditions: Canis lupus familiaris, 100 μmol/L, 24 h, mean ± SD of three replicates, read-out: Growth Inhibition Rate (%)
Procedure: First, we used the MTT method to perform cytotoxicity of barbatic acid derivatives (1, 6a–6p′) on MDCK cells at the concentration of 100 μmol/L, and the results are shown in Table 1.
The MTT assay was used to evaluate the cytotoxicity of the target compounds on DMCK cells. Logarithmic-growth-phase DMCK cells were seeded in a 96-well plate (10^4 cells/well) and incubated in a cell culture incubator for 24 h. The culture medium was then removed and replaced with a drug-containing medium for the treatment groups (1, 6a–6p′, 100 μmol/L), normal saline for the control group, or hydrochlorothiazide (100 μmol/L) for the positive control group. Each well was treated with 100 µL of the respective solution and incubated for an additional 24 h. The culture medium was then removed and replaced with a DMEM solution containing 20 µL of MTT (5 mg/mL). After incubating for 4 h, the liquid in each well was removed and replaced with 150 µL of DMSO, which was shaken for 10 min to ensure thorough mixing. The absorbance at 490 nm was measured to determine the optical density (OD) of each well. Cell growth inhibition rate (%) = (ODBlank − ODExperimental)/ODBlank × 100%.

| Structure (SMILES) | inhibition at 100 µM [1] [%] | inhibition at 100 µM [2] [%] | inhibition at 100 µM [3] [%] | C2O4^2− transport inhibition activity at different time periods ([4]; 1, 2, and 3 h (Figure 4)) | inhibition at 100 µM [4] [%] | melting point [°C] | inhibition at 100 µM (MDCK cells) [%] | Transport Inhibition Rate (%) Na^+ [2] [%] |
| --- | --- | --- | --- | --- | --- | --- | --- | --- |
| CCOc1cc(C)c(C(=O)Oc2cc(C)c(C(=O)OCC#N)c(O)c2C)c(O)c1C [Compound 6m, 4-((cyanomethoxy)carbonyl)-3-hydroxy-2,5-dimethylphenyl 4-ethoxy-2-hydroxy-3,6-dimethylbenzoate] | -29.3 ± 1.75 | -2.99 ± 6 | 2.57 ± 0.1 | very strong and continual inhibitory activities | 61 ± 2.75 | 160 to 163 | < 0 |  |
| CCOc1cc(C)c(C(=O)Oc2cc(C)c(C(=O)OCc3ccccc3)c(O)c2C)c(O)c1C [Compound 6n, benzyl 4-(4-ethoxy-2-hydroxy-3,6-dimethylbenzoyloxy)-2-hydroxy-3,6-dimethylbenzoate] | -4.47 ± 0.2 | -3.98 ± 0.15 | -2.13 ± 0.3 |  | 0.11 ± 0.7 | 129 to 131 | 0.36 ± 0.8 |  |
| CCCOc1cc(C)c(C(=O)Oc2cc(C)c(C(=O)OC)c(O)c2C)c(O)c1C [Compound 6o, 3-hydroxy-4-(methoxycarbonyl)-2,5-dimethylphenyl 2-hydroxy-3,6-dimethyl-4-propoxybenzoate] | -2.8 ± 1.2 | -2.68 ± 0.45 | 4.43 ± 0.13 |  | 5.6 ± 3.85 | 110 to 113 | < 0 |  |
| CCCOc1cc(C)c(C(=O)Oc2cc(C)c(C(=O)OCC)c(O)c2C)c(O)c1C [Compound 6p, 4-(ethoxycarbonyl)-3-hydroxy-2,5-dimethylphenyl 2-hydroxy-3,6-dimethyl-4-propoxybenzoate] | -18.38 ± 0.15 | -12.2 ± 0.45 | 4.79 ± 0.46 |  | 4.29 ± 0.24 | 160 to 163 | < 0 |  |
| CCCOC(=O)c1c(C)cc(OC(=O)c2c(C)cc(OCCC)c(C)c2O)c(C)c1O [Compound 6q, 3-hydroxy-2,5-dimethyl-4-(propoxycarbonyl)phenyl 2-hydroxy-3,6-dimethyl-4-propoxybenzoate] | 11.6 ± 2.2 | 9.39 ± 0.25 | 4.61 ± 0.32 |  | -26 ± 4.17 | 126 to 130 | < 0 |  |
| C=CCOC(=O)c1c(C)cc(OC(=O)c2c(C)cc(OCCC)c(C)c2O)c(C)c1O [Compound 6r, allyl 2-hydroxy-4-(2-hydroxy-3,6-dimethyl-4-propoxybenzoyloxy)-3,6-dimethylbenzoate] | -10.3 ± 1.4 | 1.14 ± 1.25 | 5.85 ± 0.36 |  | 9.67 ± 4.6 | 98 to 111 | < 0 |  |
| CCCOc1cc(C)c(C(=O)Oc2cc(C)c(C(=O)OCC#N)c(O)c2C)c(O)c1C [Compound 6s, 4-((cyanomethoxy)carbonyl)-3-hydroxy-2,5-dimethylphenyl 2-hydroxy-3,6-dimethyl-4-propoxybenzoate] | -6.21 ± 0.3 | -27.9 ± 0.5 | -1.74 ± 0.12 |  | 15.7 ± 1.13 | 135 to 138 | < 0 |  |
| CCCOc1cc(C)c(C(=O)Oc2cc(C)c(C(=O)OC(C)C)c(O)c2C)c(O)c1C [Compound 6t, 3-hydroxy-4-(isopropoxycarbonyl)-2,5-dimethylphenyl 2-hydroxy-3,6-dimethyl-4-propoxybenzoate] | -44.1 ± 3.5 | -37.6 ± 0.55 | -1.74 ± 0.29 |  | 11.9 ± 5.83 | 112 to 115 | 1.42 |  |
| CCCOc1cc(C)c(C(=O)Oc2cc(C)c(C(=O)OCc3ccccc3)c(O)c2C)c(O)c1C [Compound 6u, benzyl 2-hydroxy-4-(2-hydroxy-3,6-dimethyl-4-propoxybenzoyloxy)-3,6-dimethylbenzoate] | -15.9 ± 0.55 | 6.31 ± 2.35 | 0.77 ± 0.09 |  | 22.3 ± 5.04 | 111 to 114 | < 0 |  |
| COC(=O)c1c(C)cc(OC(=O)c2c(C)cc(OC(C)C)c(C)c2O)c(C)c1O [Compound 6v, 3-hydroxy-4-(methoxycarbonyl)-2,5-dimethylphenyl 2-hydroxy-4-isopropoxy-3,6-dimethylbenzoate] | -13.55 ± 0.1 | -9.43 ± 0.75 | 0.19 ± 0.29 |  | -17.9 ± 1.35 | 60 to 63 | < 0 |  |
| CCOC(=O)c1c(C)cc(OC(=O)c2c(C)cc(OC(C)C)c(C)c2O)c(C)c1O [Compound 6w, 4-(ethoxycarbonyl)-3-hydroxy-2,5-dimethylphenyl 2-hydroxy-4-isopropoxy-3,6-dimethylbenzoate] | -80.4 ± 1.2 | > 30 | 1.55 ± 0.11 |  | 19 ± 2.64 | 62 to 65 | 0.7 ± 0.3 | 33.11 ± 0.55 |
| CCCOC(=O)c1c(C)cc(OC(=O)c2c(C)cc(OC(C)C)c(C)c2O)c(C)c1O [Compound 6x, 3-hydroxy-2,5-dimethyl-4-(propoxycarbonyl)phenyl 2-hydroxy-4-isopropoxy-3,6-dimethylbenzoate] | -1.92 ± 0.25 | -1.11 ± 1.75 | 2.74 ± 0.22 |  | -5.42 ± 2.83 | 117 to 120 | < 0 |  |
| Cc1cc(OC(=O)c2c(C)cc(OC(C)C)c(C)c2O)c(C)c(O)c1C(=O)OC(C)C [Compound 6y, 3-hydroxy-4-(isopropoxycarbonyl)-2,5-dimethylphenyl 2-hydroxy-4-isopropoxy-3,6-dimethylbenzoate] | -43.3 ± 3.25 | 29.4 ± 1.85 | 3.47 ± 0.3 |  | -26.3 ± 5.41 | 140 to 143 | < 0 |  |
